{"source": "PubChem BioAssay AID1259411", "about": "(Chemical Carcinogenesis Research Information System (CCRIS), 2018)", "system": "rodent carcinogenicity bioassays, tumor incidence", "experiment": "CCRIS carcinogenicity studies", "summary_of_the_method": "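NCI-built, expert-reviewed records of carcinogenicity and related test outcomes (mutagenicity, tumor promotion/inhibition) compiled from published and report sources, historical span 1985-2011, not updated.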", "note": "The source made the active and inactive calls. How the calls were made is not given here."}
{"smiles": "Cc1cnc2ccc3c(nc(N)n3C)c2n1", "values": [{"measurement": "carcinogen call", "setting": "Species: MONKEY, Strain/Sex: CYNOMOLGUS/FEMALE, Route: GAVAGE, Dose: 0, 10, 20 MG/KG BW FOR 84 MONTHS (STUDY DURATION: 92 MONTHS), Dose: 0, 10, 20 MG/KG BW FOR 84 MONTHS (STUDY DURATION: 92 MONTHS)", "result": "inactive; negative"}, {"measurement": "carcinogen call", "setting": "Species: MONKEY, Strain/Sex: CYNOMOLGUS/MALE, Route: GAVAGE, Dose: 0, 10, 20 MG/KG BW FOR 84 MONTHS (STUDY DURATION: 92 MONTHS), Dose: 0, 10, 20 MG/KG BW FOR 84 MONTHS (STUDY DURATION: 92 MONTHS)", "result": "inactive; negative"}, {"measurement": "carcinogen call", "setting": "Species: MOUSE, Strain/Sex: B6C3F1/MALE, Route: INTRAPERITONEAL, Dose: 0, 0.625 UMOL IN 35 µL DMSO ON D 1, 8, AND 15 AFTER BIRTH (STUDY DURATION: 8 MO)", "result": "inactive; negative"}, {"measurement": "carcinogen call", "setting": "Species: MOUSE, Strain/Sex: B6C3F1/MALE, Route: INTRAPERITONEAL, Dose: 0, 0.625 UMOL IN 35 µL DMSO ON D 1, 8, AND 15 AFTER BIRTH (STUDY DURATION: 12 MO), Tumor Site: Type of Lesion: LIVER: HEPATOCELLULAR ADENOMA", "result": "active; positive"}, {"measurement": "carcinogen call", "setting": "Species: MOUSE, Strain/Sex: B6C3F1/MALE, Route: INTRAPERITONEAL, Dose: 0, 1.25 UMOL IN 35 µL DMSO ON D 1, 8, AND 15 AFTER BIRTH (STUDY DURATION: 8 MO)", "result": "inactive; negative"}, {"measurement": "carcinogen call", "setting": "Species: MOUSE, Strain/Sex: B6C3F1/MALE, Route: INTRAPERITONEAL, Dose: 0, 1.25 UMOL IN 35 µL DMSO ON D 1, 8, AND 15 AFTER BIRTH (STUDY DURATION: 12 MO), Tumor Site: Type of Lesion: LIVER: HEPATOCELLULAR ADENOMA, HEPATOCELLULAR CARCINOMA", "result": "active; positive"}, {"measurement": "carcinogen call", "setting": "Species: MOUSE, Strain/Sex: C57BL/6J/MALE (20/GROUP), Route: DIET, Dose: 0, 30, 300 PPM FOR 78 WK (STUDY DURATION: 78 WK), Dose: 0, 30, 300 PPM FOR 78 WK (STUDY DURATION: 78 WK)", "result": "inactive; negative"}, {"measurement": "carcinogen call", "setting": "Species: MOUSE, Strain/Sex: CDF1/FEMALE, Route: ORAL, Dose: 0, 0.06% IN DIET FOR 84 WK (STUDY DURATION: 84 WK), Tumor Site: Type of Lesion: LIVER: TUMOR, LUNG: ADENOMA OR ADENOCARCINOMA", "result": "active; positive"}, {"measurement": "carcinogen call", "setting": "Species: MOUSE, Strain/Sex: CDF1/MALE, Route: ORAL, Dose: 0, 0.06% IN DIET FOR 84 WK (STUDY DURATION: 84 WK), Tumor Site: Type of Lesion: LIVER: TUMOR, LYMPHATIC SYSTEM: LYMPHOMA OR LEUKEMIA", "result": "active; positive"}, {"measurement": "carcinogen call", "setting": "Species: RAT, Strain/Sex: F344/FEMALE, Route: ORAL, Dose: 0, 0.04% IN DIET FOR DURATION OF STUDY (STUDY DURATION: 429 D), Tumor Site: Type of Lesion: LIVER: TUMOR, ZYMBAL GLAND: TUMOR, CLITORAL GLAND: TUMOR, Tumor Site: Type of Lesion: LIVER: TUMOR, ZYMBAL GLAND: TUMOR, CLITORAL GLAND: TUMOR", "result": "active; positive"}, {"measurement": "carcinogen call", "setting": "Species: RAT, Strain/Sex: F344/MALE, Route: ORAL, Dose: 0, 0.04% IN DIET FOR DURATION OF STUDY (STUDY DURATION: 429 D), Tumor Site: Type of Lesion: LIVER: TUMOR, ZYMBAL GLAND: TUMOR, SKIN: TUMOR, Tumor Site: Type of Lesion: LIVER: TUMOR, ZYMBAL GLAND: TUMOR, SKIN: TUMOR", "result": "active; positive"}, {"measurement": "carcinogen call", "setting": "Species: RAT, Strain/Sex: F344/MALE, Route: ORAL, Dose: 0, 100, 200, 400 PPM IN DIET FOR 56 WK (STUDY DURATION: 56 WK), Dose: 0, 100, 200, 400 PPM IN DIET FOR 56 WK (STUDY DURATION: 56 WK), Tumor Site: Type of Lesion: LIVER: HEPATOCELLULAR ADENOMA, HEPATOCELLULAR CARCINOMA, ZYMBAL GLAND: SQUAMOUS CELL CARCINOMA, SKIN: TUMOR, Tumor Site: Type of Lesion: LIVER: HEPATOCELLULAR ADENOMA, HEPATOCELLULAR CARCINOMA, ZYMBAL GLAND: SQUAMOUS CELL CARCINOMA, SKIN: TUMOR", "result": "active; positive"}, {"measurement": "carcinogen call", "setting": "Species: RAT, Strain/Sex: LEA/MALE, Route: ORAL, Dose: 0, 40 PPM IN DIET FOR 40 WK (STUDY DURATION: 40 WK)", "result": "inactive; negative"}, {"measurement": "carcinogen call", "setting": "Species: RAT, Strain/Sex: LEC/MALE, Route: ORAL, Dose: 0, 40 PPM IN DIET FOR 40 WK (STUDY DURATION: 40 WK), Tumor Site: Type of Lesion: LIVER: TUMOR", "result": "active; positive"}, {"measurement": "carcinogen call", "setting": "Species: RAT, Strain/Sex: SPRAGUE-DAWLEY/FEMALE, Route: GAVAGE, Dose: 75 MG/KG/D FOR 10 D, THEN PLACED ON A HIGH-FAT DIET (STUDY DURATION: 46 WK), Tumor Site: Type of Lesion: MAMMARY GLAND: CARCINOMA, ADENOMA", "result": "active; positive"}]}
{"smiles": "CC(N)Cc1ccccc1", "note": "(stereo not drawn)", "values": [{"measurement": "carcinogen call", "setting": "Species: MOUSE, Strain/Sex: B6C3F1/FEMALE, Route: ORAL, Dose: 0, 20, 100 PPM IN DIET FOR 103 WK (STUDY DURATION: 105 WK), Dose: 0, 20, 100 PPM IN DIET FOR 103 WK (STUDY DURATION: 105 WK)", "result": "inactive; negative"}, {"measurement": "carcinogen call", "setting": "Species: MOUSE, Strain/Sex: B6C3F1/MALE, Route: ORAL, Dose: 0, 20, 100 PPM IN DIET FOR 103 WK (STUDY DURATION: 105 WK), Dose: 0, 20, 100 PPM IN DIET FOR 103 WK (STUDY DURATION: 105 WK)", "result": "inactive; negative"}, {"measurement": "carcinogen call", "setting": "Species: RAT, Strain/Sex: F344/FEMALE, Route: ORAL, Dose: 0, 20, 100 PPM IN DIET FOR 103 WK (STUDY DURATION: 105 WK), Dose: 0, 20, 100 PPM IN DIET FOR 103 WK (STUDY DURATION: 105 WK)", "result": "inactive; negative"}, {"measurement": "carcinogen call", "setting": "Species: RAT, Strain/Sex: F344/MALE, Route: ORAL, Dose: 0, 20, 100 PPM IN DIET FOR 103 WK (STUDY DURATION: 105 WK), Dose: 0, 20, 100 PPM IN DIET FOR 103 WK (STUDY DURATION: 105 WK)", "result": "inactive; negative"}]}
{"smiles": "Cc1c(C)c2c3c(ccc2c2ccccc12)[C@@H](O)[C@H](O)[C@@H]1O[C@H]31", "values": [{"measurement": "carcinogen call", "setting": "Species: MOUSE, Strain/Sex: ICR/FEMALE, Route: INTRAPERITONEAL, Dose: 0, 8 NMOL IN 5 µL DMSO TO PUPS ON D 1/OF LIFE THEN 16 NMOL IN 10 µL ON D 8 AND 3 NMOL IN 20 µL D 15 (STUDY DURATION: 35, Tumor Site: Type of Lesion: LUNG: TUMOR", "result": "active; positive"}, {"measurement": "carcinogen call", "setting": "Species: MOUSE, Strain/Sex: ICR/MALE, Route: INTRAPERITONEAL, Dose: 0, 8 NMOL IN 5 µL DMSO TO PUPS ON D 1/OF LIFE THEN 16 NMOL IN 10 µL ON D 8 AND 3 NMOL IN 20 µL ON D 15 (STUDY DURATION:, Tumor Site: Type of Lesion: LUNG: TUMOR, LIVER: TUMOR", "result": "active; positive"}]}
{"smiles": "CC(C)N(C(=O)SC/C(Cl)=C/Cl)C(C)C", "values": [{"measurement": "carcinogen call", "setting": "Species: MOUSE, Strain/Sex: B6AKF1/MALE, Route: GAVAGE/ORAL, Dose: 215 MG/KG IN GELATIN FROM D 7-28 OF LIFE THEN 560 PPM IN DIET, Tumor Site: Type of Lesion: LIVER: HEPATOMA", "result": "active; positive"}, {"measurement": "carcinogen call", "setting": "Species: MOUSE, Strain/Sex: B6C3F1/MALE,FEMALE, Route: GAVAGE/ORAL, Dose: 215 MG/KG IN GELATIN FROM D 7-28 OF LIFE THEN 560 PPM IN DIET, Tumor Site: Type of Lesion: LIVER: HEPATOMA", "result": "active; positive"}, {"measurement": "carcinogen call", "setting": "Species: RAT, Strain/Sex: STRAIN-CD/MALE,FEMALE, Route: ORAL, Dose: 150, 300 PPM IN DIET FOR 78 WK", "result": "inactive; negative"}]}
{"smiles": "CC(C)C/C=N/N(C)C=O", "values": [{"measurement": "carcinogen call", "setting": "Species: MOUSE, Strain/Sex: SWISS/FEMALE, Route: GAVAGE, Dose: 0, 50 UG/G BW DISSOLVED IN PROPYLENE GLYCOL 1/WK FOR 2 WK (STUDY DURATION: LIFETIME), Tumor Site: Type of Lesion: THYROID: TUMOR, LUNG: TUMOR", "result": "active; positive"}, {"measurement": "carcinogen call", "setting": "Species: MOUSE, Strain/Sex: SWISS/FEMALE, Route: GAVAGE, Dose: 0, 50 UG/G BW DISSOLVED IN PROPYLENE GLYCOL 1/WK FOR 53 WK (STUDY DURATION: LIFETIME), Tumor Site: Type of Lesion: LUNG: TUMOR, LIVER: TUMOR, GALLBLADDER: TUMOR, Tumor Site: Type of Lesion: LUNG: TUMOR, LIVER: TUMOR, GALLBLADDER: TUMOR", "result": "active; positive"}, {"measurement": "carcinogen call", "setting": "Species: MOUSE, Strain/Sex: SWISS/MALE, Route: GAVAGE, Dose: 0, 50 UG/G BW DISSOLVED IN PROPYLENE GLYCOL 1/WK FOR 2 WK (STUDY DURATION: LIFETIME), Tumor Site: Type of Lesion: LUNG: TUMOR, THYROID: TUMOR", "result": "active; positive"}, {"measurement": "carcinogen call", "setting": "Species: MOUSE, Strain/Sex: SWISS/MALE, Route: GAVAGE, Dose: 0, 50 UG/G BW DISSOLVED IN PROPYLENE GLYCOL 1/WK FOR 53 WK (STUDY DURATION: LIFETIME), Tumor Site: Type of Lesion: LUNG: TUMOR, LIVER: TUMOR, GALLBLADDER: TUMOR, PREPUTIAL GLAND: TUMOR, Tumor Site: Type of Lesion: LUNG: TUMOR, LIVER: TUMOR, GALLBLADDER: TUMOR, PREPUTIAL GLAND: TUMOR", "result": "active; positive"}]}
